Test results: patent US20100254996A1, “SYNERGISTIC TREATMENT OF CELLS THAT EXPRESS EPHA2 AND ERBB2” (MEDIMMUNE, LLC, priority 2007, published 2010)

Molecular target: T1, ErbB2 (Homo sapiens, UniProt P04626)
T1 construct: expressed in transfected cells; host or cells: MCF10A human mammary epithelial cells stably expressing HER2 (MCF10A.HER2; Ueda et al., 2004)
Assay: EphA2 and ErbB2 phosphorylation in MCF10A cells overexpressing HER2 after ErbB2 kinase inhibitor (immunoprecipitation/immunoblot)
Format: cell-based
Conditions: 10 mg/ml AG825 for 24 or 48 hours
Description: For Ras and Rho/Rac pulldown assays, tumor tissue was collected, weighed, mechanically homogenized in phosphate buffered saline (PBS) pelleted, and resuspended in manufacturer recommended assay buffer (Upstate Biotechnology). Approximately […] tumor lysate was used per assay. Ras assays were performed using Raf-1 Ras binding domain-GST assay reagent (Upstate Biotechnology) as per manufacturer's protocol. Rho assays were performed using Rhotekin binding domain-GST reagents as previously described (Fang et al., 2005). For some co-immunoprecipitation assays, COST cells were co-transfected with […] each of myc-tagged erbB2 (pcDNA3-erbB2) and ephA2 (pcDNA3-EphA2) using Lipofectamine 2000 (Invitrogen). Cells were lysed in 1% NP-40 Buffer (10 mM Tris-HCl pH 7.5, 150 mM NaCl, 2 mM EDTA, 1% NP-40 plus 50 mM protease inhibitors). Lysates were used for immunoprecipitation with an anti-myc (Sigma-Aldrich) and anti-EphA2 antibodies (Santa Cruz, sc-924) antibodies. Immune complexes were resolved on SDS-PAGE and western blotted using anti-EphA2 and anti-myc antibodies. EphA2 was immunoprecipitated from MMTV-Neu cells, followed by treatment of half the samples with the 1 mM of the cross-linking agent DTSSP. Immunoprecipitates were subjected to western blot analysis using anti-ErbB2 (Neomarkers, 1:2000). EphA2 and ErbB2 were immunoprecipiated from MCF10A and MCF10A.HER2 cells as described above. […]

T1 sequence (P04626 23-1255): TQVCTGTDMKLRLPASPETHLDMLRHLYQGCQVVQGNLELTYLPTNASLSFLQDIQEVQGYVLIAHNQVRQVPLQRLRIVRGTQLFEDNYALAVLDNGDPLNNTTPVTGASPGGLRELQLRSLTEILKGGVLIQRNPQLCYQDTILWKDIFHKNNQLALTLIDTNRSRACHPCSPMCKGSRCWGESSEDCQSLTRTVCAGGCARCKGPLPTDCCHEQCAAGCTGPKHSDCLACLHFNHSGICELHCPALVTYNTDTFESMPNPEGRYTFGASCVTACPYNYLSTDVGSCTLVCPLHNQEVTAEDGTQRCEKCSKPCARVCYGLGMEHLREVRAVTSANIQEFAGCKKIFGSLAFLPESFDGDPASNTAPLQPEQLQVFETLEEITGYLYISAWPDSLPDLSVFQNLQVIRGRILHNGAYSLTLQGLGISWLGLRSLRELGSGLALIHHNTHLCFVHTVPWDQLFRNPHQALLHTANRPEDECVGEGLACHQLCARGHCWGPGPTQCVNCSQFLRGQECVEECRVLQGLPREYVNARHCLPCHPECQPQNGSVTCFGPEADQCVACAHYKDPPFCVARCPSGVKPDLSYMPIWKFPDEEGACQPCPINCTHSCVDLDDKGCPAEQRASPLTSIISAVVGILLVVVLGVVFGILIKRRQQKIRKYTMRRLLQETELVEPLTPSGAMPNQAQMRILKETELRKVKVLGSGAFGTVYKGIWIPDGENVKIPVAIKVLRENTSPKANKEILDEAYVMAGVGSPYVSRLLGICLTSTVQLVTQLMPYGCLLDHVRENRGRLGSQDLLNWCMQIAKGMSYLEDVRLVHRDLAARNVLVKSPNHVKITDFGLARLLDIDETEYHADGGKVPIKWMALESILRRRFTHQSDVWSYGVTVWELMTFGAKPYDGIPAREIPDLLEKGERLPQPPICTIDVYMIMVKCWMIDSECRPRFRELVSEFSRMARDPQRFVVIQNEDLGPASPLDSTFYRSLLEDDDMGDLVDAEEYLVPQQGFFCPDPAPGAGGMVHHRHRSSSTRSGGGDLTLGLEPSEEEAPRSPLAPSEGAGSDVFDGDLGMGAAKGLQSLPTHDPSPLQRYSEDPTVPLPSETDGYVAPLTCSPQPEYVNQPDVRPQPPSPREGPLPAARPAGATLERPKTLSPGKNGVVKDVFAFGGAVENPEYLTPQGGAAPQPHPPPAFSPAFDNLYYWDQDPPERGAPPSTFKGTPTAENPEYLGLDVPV

COc1cc(/C=C(\C#N)C(N)=O)cc(CSc2nc3ccccc3s2)c1O [AG825]
EphA2 phosphorylation: reduced | ErbB2 phosphorylation: reduced
